The target of series [1] is T1, S. mansoni TGR (Schistosoma mansoni, UniProt Q962Y6).
T1 sequence (Q962Y6 1-598): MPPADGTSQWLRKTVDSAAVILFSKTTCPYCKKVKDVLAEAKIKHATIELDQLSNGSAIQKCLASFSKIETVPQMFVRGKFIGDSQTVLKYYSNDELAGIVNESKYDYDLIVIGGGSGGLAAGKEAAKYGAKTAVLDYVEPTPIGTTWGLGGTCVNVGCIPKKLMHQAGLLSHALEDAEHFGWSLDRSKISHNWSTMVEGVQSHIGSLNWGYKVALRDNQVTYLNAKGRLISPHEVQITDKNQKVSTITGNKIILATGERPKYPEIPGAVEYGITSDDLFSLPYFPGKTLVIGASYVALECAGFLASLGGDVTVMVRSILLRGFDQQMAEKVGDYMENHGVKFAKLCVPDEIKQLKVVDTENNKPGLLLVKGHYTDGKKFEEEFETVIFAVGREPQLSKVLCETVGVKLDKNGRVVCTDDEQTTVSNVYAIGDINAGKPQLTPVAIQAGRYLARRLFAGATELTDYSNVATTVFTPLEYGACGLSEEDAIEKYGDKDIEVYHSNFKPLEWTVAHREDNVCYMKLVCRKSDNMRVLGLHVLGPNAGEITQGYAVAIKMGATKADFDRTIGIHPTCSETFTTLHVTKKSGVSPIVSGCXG
The experiment in a line: Kinetic analysis of recombinant S. mansoni TGR with substrates. The conditions noted are these: for Specific activity, S. mansoni TGR: NADPH + substrate; for Specific activity of recombinant TGR with substrate: Trx coupled to insulin reduction, HED in Grx assay. Here is the method: Kinetic parameters were determined using Lineweaver–Burk plots using KaleidaGraph 4 (Synergy Software, http://www.synergy.com) least squares best fit of data and varying concentrations of one substrate while maintaining the concentration of other substrates. […] All assays were done in triplicate.

The target in series [2] is T1, S. mansoni TGR. In words: biochemical. The conditions noted are these: read-out: Activity of Enzyme (% of Uninhibited Enzyme).
Protocol: (§1) Assays were performed at 25 °C in 0.1 M potassium phosphate (pH 7.4), 10 mM EDTA using 100 μM NADPH unless otherwise stated.
(§2) Initial inhibitor screens were conducted in 200 μl volumes in 96 well plates with 50 μM inhibitor, 100 μM NADPH, and 5 nM TGR in 0.1 M potassium phosphate (pH 7.4), 10 mM EDTA with a preincubation step of 15 min. […] All assays were done in triplicate.
The target in series [3] is T1, S. mansoni TGR.
Protocol: as §1, §2
The target of series [4] is T2, Human TrxR (Homo sapiens, UniProt Q16881).
T2 sequence (Q16881 1-499 isoform Q16881-5): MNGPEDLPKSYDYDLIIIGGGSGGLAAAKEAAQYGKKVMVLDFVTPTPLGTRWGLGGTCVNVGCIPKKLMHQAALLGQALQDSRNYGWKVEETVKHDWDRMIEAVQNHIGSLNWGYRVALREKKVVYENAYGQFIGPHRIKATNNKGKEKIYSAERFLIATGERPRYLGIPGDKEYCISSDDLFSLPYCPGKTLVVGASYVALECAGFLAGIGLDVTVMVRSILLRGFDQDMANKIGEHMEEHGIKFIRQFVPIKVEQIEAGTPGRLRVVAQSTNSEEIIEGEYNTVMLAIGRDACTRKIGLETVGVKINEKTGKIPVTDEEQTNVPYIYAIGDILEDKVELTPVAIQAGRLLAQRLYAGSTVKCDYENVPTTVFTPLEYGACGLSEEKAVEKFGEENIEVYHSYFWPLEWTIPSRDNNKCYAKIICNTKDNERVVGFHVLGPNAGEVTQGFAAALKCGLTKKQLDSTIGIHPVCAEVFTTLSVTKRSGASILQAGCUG
The conditions noted are these: read-out: IC50 Human TrxR, DTNB/Trx; cited from earlier work.

In series [5] the target is T1, S. mansoni TGR. It is filed as biochemical. Also on record: The entire TGR ORF plus the SECIS element was subcloned into pET-24a; made in house; host or cells: Escherichia coli BL21(DE3) with pSUABC. The conditions noted are these: read-out: IC50 S. mansoni TGR, DTNB (TrxR activity).
Protocol: as §1, §2
Series [6] concerns the target T1, S. mansoni TGR. The experiment in a line: IC50, Grx activity of TGR (HED assay), 15 min preincubation. It is filed as biochemical. Also on record: The entire TGR ORF plus the SECIS element was subcloned into pET-24a; made in house; host or cells: Escherichia coli BL21(DE3) with pSUABC. The conditions noted are these: 8 mM HED plus 1 mM GSH, 15 min preincubation with 100 μM NADPH.
Protocol: as §1, §2

Series [7] has as its target T1, S. mansoni TGR. It is filed as biochemical. The conditions noted are these: read-out: IC50 S. mansoni TGR, GSSG (GR activity). More on the design: The entire TGR ORF plus the SECIS element was subcloned into pET-24a; made in house; host or cells: Escherichia coli BL21(DE3) with pSUABC.
Protocol: as §1, §2
In series [8] the test system is schistosomula. In words: Schistosomula survival after RNAi and/or drug treatment. The format is cell-based, Schistosoma mansoni. The conditions noted are these: 2 μM praziquantel.
Protocol: Cercariae were mechanically transformed to schistosomula by vortexing, and bodies were separated from tails by Percoll gradient centrifugation as described [13]. Immediately after transformation, TGR dsRNA or irrelevant dsRNA (each at 54 μg/ml) was added to ~500 schistosomula in 50 μl water followed by incubation at 37 °C for 30 min. After addition of 250 μl of RPMI-1640 medium, 300 U/ml penicillin, and 175 μg/ml streptomycin, parasites were incubated at 37 °C in 5% CO2 atmosphere for 4 d. Reduced O2 tension was obtained by filtering media and purging with 95% N2, 5% CO2 for 20 min before use. Parasites were cultured during the course of the experiment in the appropriate gaseous mix at 37 °C in a sealed modular incubator chamber (Billups-Rothenberg, http://www.brincubator.com) flushed with the same gaseous mix. On day 2 of the experiment, 50 μl of fresh media was added. Schistosomula were assessed daily for viability by microscopy. For each time point at least 1,500 parasites were scored as alive or dead in each experiment (three replicates of 500 each), and each experiment was repeated three times.
(B) Parasites were cultured in the presence of double-stranded TGR RNA (dashed lines) or of double-stranded irrelevant RNA (solid lines) in 20% O2 (♦) or 0% O2 (). […] (C) Combination of RNAi and drug treatments. Solid lines are irrelevant dsRNA treatments and dashed lines are dsTGR treatments; no additions (♦), 2 μM praziquantel () and 2 μM AF (▴). […] In each experiment for each time point at least 1,500 parasites were scored as alive or dead (three replicates of 500 parasites). The error bars represent the standard deviations of three independent experiments.
Series [9] concerns Human TrxR1. The conditions noted are these: cited from earlier work; for Specific activity, Human TrxR1: NADPH + substrate, ND, no activity detected; for Km: read-out: Apparent Km, Human TrxR1.
Series [10] concerns Human TGR. The conditions noted are these: cited from earlier work; for Specific activity, Human TGR: NADPH + substrate; for Km: read-out: Apparent Km, Human TGR.
Series [11] concerns the target T3, Human GR (Homo sapiens, UniProt P00390).
T3 sequence (P00390 44-522): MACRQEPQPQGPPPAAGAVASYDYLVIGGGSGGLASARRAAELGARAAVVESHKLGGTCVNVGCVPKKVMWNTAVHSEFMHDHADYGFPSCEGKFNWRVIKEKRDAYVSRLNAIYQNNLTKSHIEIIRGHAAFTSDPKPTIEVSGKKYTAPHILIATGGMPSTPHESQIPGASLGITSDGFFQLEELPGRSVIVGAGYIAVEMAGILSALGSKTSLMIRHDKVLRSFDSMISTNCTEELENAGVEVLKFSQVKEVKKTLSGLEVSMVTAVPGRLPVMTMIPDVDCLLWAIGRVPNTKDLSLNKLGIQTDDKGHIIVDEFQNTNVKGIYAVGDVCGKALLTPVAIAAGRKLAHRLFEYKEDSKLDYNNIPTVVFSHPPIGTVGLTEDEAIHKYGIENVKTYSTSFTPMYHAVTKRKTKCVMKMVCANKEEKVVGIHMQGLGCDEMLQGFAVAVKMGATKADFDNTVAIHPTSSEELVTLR
The conditions noted are these: read-out: IC50 Human GR, GSSG; cited from earlier work.

Where [12] appears, read: substrate of TGR (20 nM), 25 °C, pH 7.4, 100 μM NADPH.
Setting [13] is: substrate of TGR (20 nM), 25 °C, pH 7.4, 100 μM NADPH, ± SD.
Where [14] appears, read: 3 mM DTNB, 15 min preincubation with 100 μM NADPH.
The mark [15] stands for this setting: 100 μM GSSG, 15 min preincubation with 100 μM NADPH.
Setting [16] is: read-out: Apparent Km, S. mansoni TGR.

Read-outs that look alike come from different tables or passages of the source.

As a reminder, the kcat is the number of substrate molecules converted per active site and unit of time at saturation. For orientation: Vmax means the top rate of the reaction or transport when substrate is in excess. Take `O=C1OC(C(O)CO)C(=O)C1=O` (stereo not drawn) [DHAA, dehydroascorbic acid]: the kcat in [1] (setting [12]) was less than 0.25 s⁻¹. Also, the Vmax in [1] (setting [13]) was less than 0.3 µM/min.
As for `CC1=CC(=O)c2ccccc2C1=O` [Menadione], the activity at 50 µM in [2] is 18%.
As to `Cc1cc2nc3cc(C)c(N)cc3[n+](-c3ccccc3)c2cc1N` [Safranin], the activity in [3] came to 75%.
As to `O=C(O)CC([S-])C(=O)O.[Au+]` (stereo not drawn) [Aurothiomalate], the IC50 in series [4] is 280 nM; in series [5] (setting [14]), 90 nM; in series [6], 50 nM; in series [7] (setting [15]), 50 nM. Moreover, in series [3], the activity was determined as 0%.
On to `O=C1C=CC(=O)c2c(O)ccc(O)c21` [Naphthazarin], for which the IC50 in series [4] is 650 nM.
In general, Km refers to the concentration of substrate that gives half-maximal velocity. For the molecule `O=C(O)CCCC[C@@H]1CCSS1` (racemic) [Lipoic acid], the kcat in [1] (setting [12]) was 1.7 s⁻¹. Besides, in [1] (setting [13]), the Km was determined as 2610 µM and the Vmax amounted to 2.03 ± 0.135 µM/min.
For `CN(C)c1ccc2nc3ccc(=[N+](C)C)cc-3sc2c1` [Methylene blue], the activity at 50 µM in series [2] stood at 100%.
Regarding `O=C(C1CCCCC1)N1CC(=O)N2CCc3ccccc3C2C1` (stereo not drawn) [Praziquantel], the activity at 50 µM in series [2] worked out at 100%. Besides, in series [8], the “Effect on schistosomula survival alone or in combination with RNAi” value is reported as “no effect”. Besides, in [3], the “Inhibition of TGR, in words” value was “no inhibitory activity”.
Regarding `O=C1C=CC(=O)c2ccccc21` [Compound M5], in series [3], the activity stood at 37%.
Consider `CC(C)(C)OO` [t-Butyl-OOH, tert-butyl hydroperoxide], for which the kcat in series [1] (setting [12]) amounted to 10.7 s⁻¹. Further, in [1] (setting [13]), the Km stood at 48600 µM and the Vmax is 12.8 ± 0.33 µM/min.
For the molecule `CC1=CC(=O)c2c(O)cccc2C1=O` [Plumbagin], in series [2], the activity at 50 µM worked out at 15%.
Regarding `COC1=C(OC)C(=O)C(C/C=C(\C)CC/C=C(\C)CC/C=C(\C)CC/C=C(\C)CC/C=C(\C)CC/C=C(\C)CC/C=C(\C)CC/C=C(\C)CC/C=C(\C)CCC=C(C)C)=C(C)C1=O` [Ubiquinone], the kcat in series [1] (setting [12]) was less than 0.25 s⁻¹. Moreover, in series [1] (setting [13]), the Vmax is less than 0.3 µM/min.
Regarding `O=C(O)c1cc(SSc2ccc([N+](=O)[O-])c(C(=O)O)c2)ccc1[N+](=O)[O-]` [DTNB, 5,5′-dithiobis(2-nitrobenzoic acid)], in [1], the “Specific activity, S. mansoni TGR” value amounted to 10.2 µmol/min/mg and the “Specific activity of recombinant TGR with substrate” value (from here on “Specific activity … with substrate”) is on record as 10.2 U/mg. In series [1] (setting [12]), the catalytic constant (kcat) was determined as 16 s⁻¹. Further, in [1] (setting [13]), the Km turned out to be 114 ± 9 µM and the Vmax stood at 19.2 ± 1.6 µM/min. Also, in series [9], the “Specific activity, Human TrxR1” value is 25 µmol/min/mg; the “Apparent kcat, Human TrxR1” value is 86 s⁻¹; the Km was 212 µM. In [10], the “Specific activity, Human TGR” value was 3.1 µmol/min/mg; the “Apparent kcat, Human TGR” value was 6.5 s⁻¹; the Km is 14.7 µM.
As for `O=[Se]([O-])[O-].[Na+].[Na+]` [Na2SeO3, sodium selenite], the kcat in [1] (setting [12]) was 2.1 s⁻¹. Moreover, in series [1] (setting [13]), the Km is 66.7 ± 6.9 µM and the Vmax was 2.54 ± 0.046 µM/min.
`CN(C)CCC(=O)c1ccccc1` [Compound 3-DAP]: the results for the IC50 in series [5] (setting [14]) and in [7] (setting [15]) were 500 nM and 7000 nM, respectively.
Regarding `OO` [Compound H2O2, H2O2], in series [1] (setting [12]), the kcat turned out to be 9.4 s⁻¹. In series [1] (setting [13]), the Km was determined as 68000 µM and the Vmax came out at 11.3 ± 0.46 µM/min.
As to `OCCSSCCO` [HED, β-hydroxyethyl disulfide], in series [1], the “Apparent kcat, S. mansoni TGR” value is 17.8 s⁻¹; the “Specific activity, S. mansoni TGR” value stood at 9.9 µmol/min/mg; the “Specific activity … with substrate” value is reported as 9.9 U/mg. In series [1] (setting [16]), the Km came to 1870 µM. Besides, in [1] (setting [12]), the kcat turned out to be 17.8 s⁻¹. For the same molecule, in series [1] (setting [13]), the Km was 1870 µM and the Vmax turned out to be 21.4 ± 0.33 µM/min. Moreover, in series [10], the “Specific activity, Human TGR” value is 1.9 µmol/min/mg; the “Apparent kcat, Human TGR” value was 1.2 s⁻¹; the Km is 45.2 µM.
In the case of `OC[C@H]1O[C@H]([S-])[C@H](O)[C@@H](O)[C@@H]1O.[Au+]` [Aurothioglucose], the IC50 is more than 100000 nM in series [11]; 65 nM in series [4]; 70 nM in series [5]; 400 nM in series [6]; 3000 nM in series [7]. Moreover, the “Activity of Enzyme (% of Uninhibited Enzyme)” value in series [3] turned out to be 0%.

B1: Trx: 12 kDa protein thioredoxin, substrate of TrxR and TGR enzymes (protein, UniProt P10599 2-105, looked up)
Thioredoxin: VKQIESKTAFQEALDAAGDKLVVVDFSATWCGPCKMIKPFFHSLSEKYSNVIFLEVDVDDCQDVASECEVKCMPTFQFFKKGQKVGEFSGANKEKLEATINELV
Take B1: in series [1], the “Apparent kcat, S. mansoni TGR” value was 30 s⁻¹; the “Specific activity, S. mansoni TGR” value came to 2.2 µmol/min/mg; the “Specific activity … with substrate” value is reported as 2.2 U/mg. The Michaelis-Menten constant (Km) in [1] (setting [16]) was found to be 6.37 µM. For the same molecule, in [9], the “Specific activity, Human TrxR1” value is 5.9 µmol/min/mg; the “Apparent kcat, Human TrxR1” value was 9.8 s⁻¹; the Km is 4.73 µM. Also, in series [10], the “Specific activity, Human TGR” value is 4.2 µmol/min/mg; the “Apparent kcat, Human TGR” value is 5.7 s⁻¹; the Km was 3 µM.

Values taken from publication PMC1892040 (PLoS Medicine, 2007).
